Results reported in patent publication US9145411B2, “Substituted amino-pyrimidine derivatives” (Asana Biosciences, LLC, priority 2012, dated 2015).

Tests used:
PI3 kinase isoform β = PI3 kinase isoform β (Homo sapiens, UniProt P42338); experiment: PI3 Kinase TR-FRET assay, isoform β; assay type: biochemical; details: read-out: inhibition of PI3 kinase isoform β, IC50
Procedure: (§1) The ability of compounds of the invention to inhibit PI3K activity was determined in a homogeneous TR-FRET assay using a PI3K assay kit (Millipore, USA; cat #33-016) according to manufacturer's instructions. PI3-Kinases (isoforms α, β, γ and δ) catalyze the phosphorylation of phosphatidylinositol, PIP2 to PIP3 in the presence of ATP and Mg^2+. The PIP3 product is detected by displacement of biotin-PIP3 from an energy transfer complex consisting of Europium labeled anti-GST monoclonal antibody, a GST-tagged PH domain, biotinylated PIP3 and Streptavidin-APC. Excitation of Europium in the complex results in an energy transfer to the APC and a fluorescence emission at 665 nm. The PIP3 product displaces biotin-PIP3 from the complex resulting in a loss of energy transfer and thus a decrease in signal.
To test for the ability of compounds to inhibit the activity of PI3Kα (wild-type), exemplary compounds of formula (I) were dissolved in DMSO and directly distributed into 384-well plates at a volume of 0.5 μL. […] Fluorescence was measured at 615 and 665 nm upon excitation at 340 nm in a Victor™ V5 fluorometer (Perkin Elmer, USA). The fluorescence emission ratio at 665 to 615 nm, proportional to the kinase activity, was plotted against the compound concentration to generate dose-response curves and IC50 values were determined using GraphPad Prism® 5 software. […]

PC3 cells = experiment: In vivo efficacy study (tumor growth suppression), PC3 xenograft; details: athymic male mice, after 14 days of dosing at 50 mg/kg qd po
Procedure: PC3 cells were cultured at 37° C. in a 5% CO2 incubator using Hams F12 K medium. Five million (5×10^6) cells were implanted subcutaneously to the right flank of athymic male mice (Harlan, age: 6-7 weeks, weight: about 20 g). Tumor bearing mice were randomized when the tumor volume reached about 100 mm^3 Ten mice were used per group. Compounds of formula (I) were typically formulated using HPCD in PBS, pH 7.4 or in 10% Ethanol/40% Solutol/50% 50 mM aq. methanesulfonic acid and dosed orally (dose volume, 10 mL/kg). Solutions of the compounds were prepared immediately before dosing the animals. A vehicle control and a reference compound were included along with test compounds.
The tumor size was measured on alternate days using Vernier® calipers. Assuming tumors to be ellipsoid, the tumor volume was calculated using the formula: V=(D×d^2)/2 • where: • V (mm^3) is tumor volume • D is longest diameter in mm • d is shortest diameter in mm.
Changes in tumor volume (Δ volumes) for each treated (T) and control (C) group were calculated by subtracting the mean tumor volume on the first day of treatment (starting day) from the mean tumor volume on the specified observation day. […]
Percentage tumor growth inhibition was calculated as [100−% T/C]. Percentage body weight change was calculated as [(Body weight on specified observation day−Body weight on starting day)/Body weight on starting day]×100. […]

PI3 kinase isoform δ = PI3 kinase isoform δ (Homo sapiens, UniProt O00329); experiment: PI3 Kinase TR-FRET assay, isoform δ; assay type: biochemical; details: read-out: inhibition of PI3 kinase isoform δ, IC50
Procedure: as §1
To test for the ability of compounds to inhibit the activity of PI3Kα (wild-type), exemplary compounds of formula (I) were dissolved in DMSO and directly distributed into 384-well plates at a volume of 0.5 μL. 14.5 μL of P110/P85α/PIP2 mixture in buffer (obtained from the Millipore kit) containing MgCl2 (40 mM) and DTT (5 mM) was added to compound wells and incubated for 60 minutes at room temperature. P110/P85α was expressed in SF9 insect cells and purified nickel column extraction. Five ng of wild-type P110/P85α was used in the assay. The kinase reaction was started by the addition of ATP. The assay concentrations of both PIP2 and ATP were 10 μM. The reaction mixture was incubated for 30 minutes at room temperature and was terminated by the addition of stop mix and detection mix. Fluorescence was measured at 615 and 665 nm upon excitation at 340 nm in a Victor™ V5 fluorometer (Perkin Elmer, USA). The fluorescence emission ratio at 665 to 615 nm, proportional to the kinase activity, was plotted against the compound concentration to generate dose-response curves and IC50 values were determined using GraphPad Prism® 5 software.
The activity of PI3 kinase isoforms β, γ and δ were assayed in a similar manner to the assay protocol described above for PI3Kα, by substituting the appropriate p110/p85 isoform for the p110α/p85α. Compounds of formula (I) caused inhibition of PI3 kinase isoforms β, γ and δ as determined by these assays. For example, the compounds of Examples 3 and 21 each caused inhibition of PI3 kinase isoform β with IC50 values<500 nM. The compounds of Examples 3, 7, 21, 47, 48 and 49 each caused inhibition of PI3 kinase isoform γ with IC50 values<500 nM. The compounds of Example 3, 7, 47, 48, and 49 caused inhibition of PI3 kinase isoform δ with IC50 values<1 μM.

Sequence of PI3 kinase isoform δ (O00329 whole entry, canonical isoform): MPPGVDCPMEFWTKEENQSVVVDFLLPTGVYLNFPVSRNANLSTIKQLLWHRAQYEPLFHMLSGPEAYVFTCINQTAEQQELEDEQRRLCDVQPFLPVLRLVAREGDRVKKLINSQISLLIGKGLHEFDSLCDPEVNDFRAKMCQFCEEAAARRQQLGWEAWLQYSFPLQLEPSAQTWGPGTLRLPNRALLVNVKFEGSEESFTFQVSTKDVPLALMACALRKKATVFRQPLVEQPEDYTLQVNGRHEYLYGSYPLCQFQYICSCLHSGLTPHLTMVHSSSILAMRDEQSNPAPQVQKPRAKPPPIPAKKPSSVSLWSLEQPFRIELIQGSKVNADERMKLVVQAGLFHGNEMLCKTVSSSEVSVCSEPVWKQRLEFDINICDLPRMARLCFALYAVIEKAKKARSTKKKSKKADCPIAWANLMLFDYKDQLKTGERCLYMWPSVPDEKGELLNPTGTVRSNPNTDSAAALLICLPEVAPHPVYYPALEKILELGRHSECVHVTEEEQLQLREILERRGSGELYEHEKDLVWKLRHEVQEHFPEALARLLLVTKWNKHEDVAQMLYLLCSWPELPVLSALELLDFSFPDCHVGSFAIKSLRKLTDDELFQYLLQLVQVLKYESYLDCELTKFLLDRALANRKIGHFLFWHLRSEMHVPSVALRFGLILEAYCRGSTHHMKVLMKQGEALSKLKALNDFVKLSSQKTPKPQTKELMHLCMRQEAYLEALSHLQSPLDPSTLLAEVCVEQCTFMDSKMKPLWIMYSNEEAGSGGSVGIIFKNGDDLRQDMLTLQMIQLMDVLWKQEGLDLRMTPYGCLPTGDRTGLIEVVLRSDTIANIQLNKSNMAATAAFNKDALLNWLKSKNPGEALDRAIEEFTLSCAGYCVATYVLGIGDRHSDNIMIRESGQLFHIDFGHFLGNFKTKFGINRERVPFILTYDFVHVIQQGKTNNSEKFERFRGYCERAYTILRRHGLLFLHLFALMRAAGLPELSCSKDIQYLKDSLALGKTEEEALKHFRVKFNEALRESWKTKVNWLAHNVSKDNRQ
Sequence of PI3 kinase isoform δ (P27986 whole entry partner, canonical isoform): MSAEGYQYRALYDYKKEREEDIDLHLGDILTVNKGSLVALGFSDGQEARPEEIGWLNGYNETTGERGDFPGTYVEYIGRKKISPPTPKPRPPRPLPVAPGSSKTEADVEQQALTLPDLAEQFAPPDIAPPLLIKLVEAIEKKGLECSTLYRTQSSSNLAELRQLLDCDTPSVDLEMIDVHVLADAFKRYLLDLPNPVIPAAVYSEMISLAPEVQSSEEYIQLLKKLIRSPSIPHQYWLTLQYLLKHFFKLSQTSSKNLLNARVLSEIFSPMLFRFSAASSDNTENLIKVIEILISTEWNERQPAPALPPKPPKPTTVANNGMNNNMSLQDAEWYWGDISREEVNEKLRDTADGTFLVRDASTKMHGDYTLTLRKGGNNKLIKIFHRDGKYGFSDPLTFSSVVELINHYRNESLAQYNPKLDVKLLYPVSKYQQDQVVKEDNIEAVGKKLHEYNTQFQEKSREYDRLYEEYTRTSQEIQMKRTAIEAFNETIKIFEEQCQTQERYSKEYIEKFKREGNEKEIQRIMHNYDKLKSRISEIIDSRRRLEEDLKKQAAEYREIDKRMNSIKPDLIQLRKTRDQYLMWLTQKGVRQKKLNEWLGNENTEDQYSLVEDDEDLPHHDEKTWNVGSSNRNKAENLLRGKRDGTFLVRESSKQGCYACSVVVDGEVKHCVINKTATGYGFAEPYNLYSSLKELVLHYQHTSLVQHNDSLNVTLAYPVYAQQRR
Sequence of PI3 kinase isoform β (P42338 whole entry, the tested form may be a part, canonical isoform): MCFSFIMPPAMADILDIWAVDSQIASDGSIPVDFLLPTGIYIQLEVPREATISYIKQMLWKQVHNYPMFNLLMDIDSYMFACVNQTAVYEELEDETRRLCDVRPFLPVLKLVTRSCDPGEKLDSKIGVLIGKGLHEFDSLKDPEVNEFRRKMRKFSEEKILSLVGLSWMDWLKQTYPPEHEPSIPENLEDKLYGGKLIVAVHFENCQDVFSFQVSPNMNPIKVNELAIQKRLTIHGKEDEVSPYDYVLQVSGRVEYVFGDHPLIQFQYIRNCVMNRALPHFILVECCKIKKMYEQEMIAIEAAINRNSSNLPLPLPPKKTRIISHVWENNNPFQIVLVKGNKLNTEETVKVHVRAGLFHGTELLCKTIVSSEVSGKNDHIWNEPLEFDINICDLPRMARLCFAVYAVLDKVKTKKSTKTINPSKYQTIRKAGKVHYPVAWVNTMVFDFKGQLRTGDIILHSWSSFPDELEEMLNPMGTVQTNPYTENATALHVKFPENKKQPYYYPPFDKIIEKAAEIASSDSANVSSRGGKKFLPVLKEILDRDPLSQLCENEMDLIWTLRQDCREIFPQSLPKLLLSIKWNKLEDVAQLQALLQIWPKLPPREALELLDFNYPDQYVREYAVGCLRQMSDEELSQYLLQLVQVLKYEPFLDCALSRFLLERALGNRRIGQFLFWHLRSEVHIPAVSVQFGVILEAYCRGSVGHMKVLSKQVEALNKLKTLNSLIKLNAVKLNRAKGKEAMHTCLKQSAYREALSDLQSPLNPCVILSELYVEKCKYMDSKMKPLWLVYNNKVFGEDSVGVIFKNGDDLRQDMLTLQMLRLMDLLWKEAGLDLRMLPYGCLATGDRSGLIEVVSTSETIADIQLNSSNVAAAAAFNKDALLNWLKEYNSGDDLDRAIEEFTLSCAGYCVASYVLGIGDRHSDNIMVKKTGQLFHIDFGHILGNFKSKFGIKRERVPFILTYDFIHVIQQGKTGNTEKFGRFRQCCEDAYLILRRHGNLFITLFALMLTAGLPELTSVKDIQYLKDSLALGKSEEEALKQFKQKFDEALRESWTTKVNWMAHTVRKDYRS
Sequence of PI3 kinase isoform β (P27986 whole entry partner, the tested form may be a part, canonical isoform): as the sequence (P27986 whole entry partner, canonical isoform) above

IC50 (PI3 kinase isoform β) [µM]	IC50 (PI3 kinase isoform δ) [µM]	Compound	tumor growth inhibition relative to vehicle control group (PC3 cells)
< 0.5	< 1	CC(=O)Nc1cccc(-c2cnc3c(N4CCOCC4)nc(-c4cnc(N)nc4)nc3c2)c1 [Example 3, N-(3-(2-(2-Aminopyrimidin-5-yl)-4-morpholinopyrido[3,2-d]pyrimidin-7-yl)-phenyl)acetamide]	more than 40%
–	< 1	Nc1ncc(-c2nc(N3CCOCC3)c3ncc(-c4cccc(NC(=O)C5CC5)c4)cc3n2)cn1 [Example 7, N-(3-(2-(2-Aminopyrimidin-5-yl)-4-morpholinopyrido[3,2-d]pyrimidin-7-yl)-phenyl)cyclopropanecarboxamide]	–
